# According to patent publication US20220324865A1 (Bayer Aktiengesellschaft, priority 2018, published 2022):
# Biological target: T1, human EP3 receptor (Homo sapiens, UniProt P43115)
# T1 construct: expressed in transfected cells; host or cells: CHO K1 (Chinese Hamster Ovary), stably co-transfected with Galpha16 and mitochondrial clytin
# T1 sequence (P43115 1-390): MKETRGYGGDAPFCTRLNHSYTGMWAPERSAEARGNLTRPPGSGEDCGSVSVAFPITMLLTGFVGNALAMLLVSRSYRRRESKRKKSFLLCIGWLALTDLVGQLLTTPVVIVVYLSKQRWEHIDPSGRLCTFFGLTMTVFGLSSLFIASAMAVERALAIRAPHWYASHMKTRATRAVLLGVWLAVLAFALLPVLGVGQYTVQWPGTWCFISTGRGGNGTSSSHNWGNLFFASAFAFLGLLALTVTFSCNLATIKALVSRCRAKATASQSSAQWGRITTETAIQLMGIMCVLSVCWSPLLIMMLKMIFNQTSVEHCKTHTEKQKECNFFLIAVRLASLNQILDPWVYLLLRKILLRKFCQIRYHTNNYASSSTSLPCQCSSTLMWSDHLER
# Assay: Cellular in vitro assay for determining EP3 receptor activity (human EP3 cell line, sulprostone-stimulated calcium luminescence)
# Format: cell-based
# Details: CHO cells expressing human EP3 and mitochondrial Clytin; antagonist mode, sulprostone at EC50; read-out: EP3 CHO mtCLY ANTAG IC50
# Summary of the method: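 CHO K1 cells stably expressing human EP3 with Gα16 and mitochondrial Clytin, loaded overnight with coelenterazine. Compounds added 10 min before sulprostone at its EC50; antagonism read immediately as reduced calcium-driven luminescence, quadruplicate points.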
row,SMILES,IC50 [nM]
1,"O=C(NCCc1ccccc1F)c1cc2c(=O)[nH]c(-c3ccc4ccccc4c3)cn2n1 [Example 2-9, N-[2-(2-Fluorophenyl)ethyl]-6-(2-naphthyl)-4-oxo-4,5-dihydropyrazolo[1,5-a]pyrazine-2-carboxamide]",3.65
2,"CC(C)(C)CNC(=O)c1cc2c(=O)[nH]c(-c3ccc4ccccc4c3)cn2n1 [Example 2-11, N-(2,2-Dimethylpropyl)-6-(2-naphthyl)-4-oxo-4,5-dihydropyrazolo[1,5-a]pyrazine-2-carboxamide]",7.15
3,"Cc1cnn(C(CNC(=O)c2cc3c(=O)[nH]c(-c4ccc5ccccc5c4)cn3n2)C(C)C)c1 (stereo not shown) [Example 2-12, N-[3-Methyl-2-(4-methyl-1H-pyrazol-1-yl)butyl]-6-(2-naphthyl)-4-oxo-4,5-dihydropyrazolo[1,5-a]pyrazine-2-carboxamide]",4.65
4,"CN(C)C(CNC(=O)c1cc2c(=O)[nH]c(-c3ccc4ccccc4c3)cn2n1)c1cccc(C(F)(F)F)c1 (stereo not shown) [Example 2-15, N-{2-(Dimethylamino)-2-[3-(trifluormethyl)phenyl]ethyl}-6-(2-naphthyl)-4-oxo-4,5-dihydropyrazolo[1,5-a]pyrazine-2-carboxamide]",9.55
5,"COc1ccc2c(c1)C(NC(=O)c1cc3c(=O)[nH]c(-c4ccc5ccccc5c4)cn3n1)CC(C)(C)O2 (stereo not shown) [Example 2-16, N-[6-Methoxy-2,2-dimethyl-3,4-dihydro-2H-chromen-4-yl]-6-(2-naphthyl)-4-oxo-4,5-dihydropyrazolo[1,5-a]pyrazine-2-carboxamide]",6.2
6,"CC(C)C(CNC(=O)c1cc2c(=O)[nH]c(-c3ccc4ccccc4c3)cn2n1)n1cccn1 (stereo not shown) [Example 2-17, N-[3-Methyl-2-(1H-pyrazol-1-yl)butyl]-6-(2-naphthyl)-4-oxo-4,5-dihydropyrazolo[1,5-a]pyrazine-2-carboxamide]",6.5
7,"Cc1cc(C)n(C(CNC(=O)c2cc3c(=O)[nH]c(-c4ccc5ccccc5c4)cn3n2)C(C)C)n1 (stereo not shown) [Example 2-19, N-[2-(3,5-Dimethyl-1H-pyrazol-1-yl)-3-methylbutyl]-6-(2-naphthyl)-4-oxo-4,5-dihydropyrazolo[1,5-a]pyrazine-2-carboxamide]",7.9
8,"Cc1nn(C(CNC(=O)c2cc3c(=O)[nH]c(-c4ccc5ccccc5c4)cn3n2)C(C)C)c(C)c1Cl (stereo not shown) [Example 2-20, N-[2-(4-Chloro-3,5-dimethyl-1H-pyrazol-1-yl)-3-methylbutyl]-6-(2-naphthyl)-4-oxo-4,5-dihydropyrazolo[1,5-a]pyrazine-2-carboxamide]",9.75
9,"Cc1nn(C)c(C)c1C(C)NC(=O)c1cc2c(=O)[nH]c(-c3ccc4ccccc4c3)cn2n1 (stereo not shown) [Example 2-21, 6-(2-Naphthyl)-4-oxo-N-[1-(1,3,5-trimethyl-1H-pyrazol-4-yl)ethyl]-4,5-dihydropyrazolo[1,5-a]pyrazine-2-carboxamide]",4.45
10,"CC(C)C(CNC(=O)c1cc2c(=O)[nH]c(-c3ccc4ccccc4c3)cn2n1)n1cc(Cl)cn1 (stereo not shown) [Example 2-22, N-[2-(4-Chlor-1H-pyrazol-1-yl)-3-methylbutyl]-6-(2-naphthyl)-4-oxo-4,5-dihydropyrazolo[1,5-a]pyrazine-2-carboxamide]",3.85
11,"COC[C@H](Cc1ccccc1)NC(=O)c1cc2c(=O)[nH]c(-c3ccc4ccccc4c3)cn2n1 [Example 2-25, N-[(2S)-1-Methoxy-3-phenylpropan-2-yl]-6-(2-naphthyl)-4-oxo-4,5-dihydropyrazolo[1,5-a]pyrazine-2-carboxamide]",2.9
12,"O=C(NC(CO)c1cc(Cl)cc(Cl)c1)c1cc2c(=O)[nH]c(-c3ccc4ccccc4c3)cn2n1 (stereo not shown) [Example 2-26, N-[1-(3,5-Dichlorophenyl)-2-hydroxyethyl]-6-(2-naphthyl)-4-oxo-4,5-dihydropyrazolo[1,5-a]pyrazine-2-carboxamide]",2.65
13,"C[C@@H](NC(=O)c1cc2c(=O)[nH]c(-c3ccc4ccccc4c3)cn2n1)c1cccc2ccccc12 [Example 2-27, 6-(2-Naphthyl)-N-[(7R)-1-(1-naphthyl)ethyl]-4-oxo-4,5-dihydropyrazolo[1,5-a]pyrazine-2-carboxamide]",3.25
14,"Cc1cnn(CC(C)NC(=O)c2cc3c(=O)[nH]c(-c4ccc5ccccc5c4)cn3n2)c1 (stereo not shown) [Example 2-29, N-[1-(4-Methyl-1H-pyrazol-1-yl)propan-2-yl]-6-(2-naphthyl)-4-oxo-4,5-dihydropyrazolo[1,5-a]pyrazine-2-carboxamide]",7.25
15,"Cc1cccc(C)c1OCC(C)NC(=O)c1cc2c(=O)[nH]c(-c3ccc4ccccc4c3)cn2n1 (stereo not shown) [Example 2-30, N-[1-(2,6-Dimethylphenoxy)propan-2-yl]-6-(2-naphthyl)-4-oxo-4,5-dihydropyrazolo[1,5-a]pyrazine-2-carboxamide]",5.45
16,"O=C(NC1CCCc2ccccc21)c1cc2c(=O)[nH]c(-c3ccc4ccccc4c3)cn2n1 (stereo not shown) [Example 2-32, 6-(2-Naphthyl)-4-oxo-N-[1,2,3,4-tetrahydronaphthalin-1-yl]-4,5-dihydropyrazolo[1,5-a]pyrazine-2-carboxamide]",2.8
17,"CC(NC(=O)c1cc2c(=O)[nH]c(-c3ccc4ccccc4c3)cn2n1)c1ccc2c(c1)OCCO2 (stereo not shown) [Example 2-35, N-[1-(2,3-Dihydro-1,4-benzodioxin-6-yl)ethyl]-6-(2-naphthyl)-4-oxo-4,5-dihydropyrazolo[1,5-a]pyrazine-2-carboxamide]",5.3
18,"CC(NC(=O)c1cc2c(=O)[nH]c(-c3ccc4ccccc4c3)cn2n1)c1ccc(Cl)c(Cl)c1 (stereo not shown) [Example 2-36, N-[1-(3,4-Dichlorphenyl)ethyl]-6-(2-naphthyl)-4-oxo-4,5-dihydropyrazolo[1,5-a]pyrazine-2-carboxamide]",2.8
19,"CC(NC(=O)c1cc2c(=O)[nH]c(-c3ccc4ccccc4c3)cn2n1)c1ccc(S(N)(=O)=O)cc1 (stereo not shown) [Example 2-37, 6-(2-Naphthyl)-4-oxo-N-[1-(4-sulfamoylphenyl)ethyl]-4,5-dihydropyrazolo[1,5-a]pyrazine-2-carboxamide]",4.5

# Now those with a lower IC50, led by results:
row,IC50 [nM],SMILES
1,1.2,"COc1ccccc1C(C)NC(=O)c1cc2c(=O)[nH]c(-c3ccc4ccccc4c3)cn2n1 (stereo not shown) [Example 2-8, N-[1-(2-Methoxyphenyl)ethyl]-6-(2-naphthyl)-4-oxo-4,5-dihydropyrazolo[1,5-a]pyrazine-2-carboxamide]"
2,1.7,"CCC(CNC(=O)c1cc2c(=O)[nH]c(-c3ccc4ccccc4c3)cn2n1)n1cc(Cl)cn1 (stereo not shown) [Example 2-10, N-[2-(4-Chlor-1H-pyrazol-1-yl)butyl]-6-(2-naphthyl)-4-oxo-4,5-dihydropyrazolo[1,5-a]pyrazine-2-carboxamide]"
3,1.3,"O=C(NC(c1cccc(F)c1)C(F)F)c1cc2c(=O)[nH]c(-c3ccc4ccccc4c3)cn2n1 (stereo not shown) [Example 2-13, N-[2,2-Difluoro-1-(3-fluorophenyl)ethyl]-6-(2-naphthyl)-4-oxo-4,5-dihydropyrazolo[1,5-a]pyrazine-2-carboxamide]"
4,1.25,"Cc1ccc(CNC(=O)c2cc3c(=O)[nH]c(-c4ccc5ccccc5c4)cn3n2)cc1 [Example 2-14, N-(4-Methylbenzyl)-6-(2-naphthyl)-4-oxo-4,5-dihydropyrazolo[1,5-a]pyrazine-2-carboxamide]"
5,2.2,"Cc1nn(C(C)CNC(=O)c2cc3c(=O)[nH]c(-c4ccc5ccccc5c4)cn3n2)cc1Cl (stereo not shown) [Example 2-18, N-[2-(4-Chlor-3-methyl-1H-pyrazol-1-yl)propyl]-6-(2-naphthyl)-4-oxo-4,5-dihydropyrazolo[1,5-a]pyrazine-2-carboxamide]"
6,1.14,"COc1cccc(CNC(=O)c2cc3c(=O)[nH]c(-c4ccc5ccccc5c4)cn3n2)c1 [Example 2-23, N-(3-Methoxybenzyl)-6-(2-naphthyl)-4-oxo-4,5-dihydropyrazolo[1,5-a]pyrazine-2-carboxamide]"
7,2.45,"O=C(NCc1nc2ccccc2[nH]1)c1cc2c(=O)[nH]c(-c3ccc4ccccc4c3)cn2n1 [Example 2-24, N-(1H-Benzimidazol-2-ylmethyl)-6-(2-naphthyl)-4-oxo-4,5-dihydropyrazolo[1,5-a]pyrazine-2-carboxamide]"
8,0.93,"O=C(NC(CO)c1ccc2c(c1)OCO2)c1cc2c(=O)[nH]c(-c3ccc4ccccc4c3)cn2n1 (stereo not shown) [Example 2-28, N-[1-(1,3-Benzodioxol-5-yl)-2-hydroxyethyl]-6-(2-naphthyl)-4-oxo-4,5-dihydropyrazolo[1,5-a]pyrazine-2-carboxamide]"
9,2.55,"O=C(NCc1cc(F)cc(F)c1)c1cc2c(=O)[nH]c(-c3ccc4ccccc4c3)cn2n1 [Example 2-31, N-(3,5-Difluorbenzyl)-6-(2-naphthyl)-4-oxo-4,5-dihydropyrazolo[1,5-a]pyrazine-2-carboxamide]"
10,1.5,"O=C(NCc1ccc(F)c(F)c1)c1cc2c(=O)[nH]c(-c3ccc4ccccc4c3)cn2n1 [Example 2-33, N-(3,4-Difluorbenzyl)-6-(2-naphthyl)-4-oxo-4,5-dihydropyrazolo[1,5-a]pyrazine-2-carboxamide]"
11,1.9,"C[C@H](NC(=O)c1cc2c(=O)[nH]c(-c3ccc4ccccc4c3)cn2n1)c1ccccc1 [Example 2-34, 6-(2-Naphthyl)-4-oxo-N-[(7S)-1-phenylethyl]-4,5-dihydropyrazolo[1,5-a]pyrazine-2-carboxamide]"
12,2.05,"CC(C)C(NC(=O)c1cc2c(=O)[nH]c(-c3ccc4ccccc4c3)cn2n1)c1cccs1 (stereo not shown) [Example 2-38, N-[2-Methyl-1-(2-thienyl)propyl]-6-(2-naphthyl)-4-oxo-4,5-dihydropyrazolo[1,5-a]pyrazine-2-carboxamide]"
